Results published in ChEMBL document CHEMBL5528029, “Design, synthesis, and biological evaluation of novel discoidin domain receptor inhibitors for the treatment of lung adenocarcinoma and pulmonary fibrosis” (Eur J Med Chem, 2024).
pIC50: −log10 of the molar value. Each block holds one compound with its values, some of them ahead of it. The source made the active and inactive calls. The calls are words filed in the database; no cut-off is given here.

Experiments:
[1] = target: T1, Discoidin domain-containing receptor 2 (Homo sapiens, UniProt Q16832); assay: Inhibition of DDR2 (unknown origin)
T1 sequence (Q16832 whole entry): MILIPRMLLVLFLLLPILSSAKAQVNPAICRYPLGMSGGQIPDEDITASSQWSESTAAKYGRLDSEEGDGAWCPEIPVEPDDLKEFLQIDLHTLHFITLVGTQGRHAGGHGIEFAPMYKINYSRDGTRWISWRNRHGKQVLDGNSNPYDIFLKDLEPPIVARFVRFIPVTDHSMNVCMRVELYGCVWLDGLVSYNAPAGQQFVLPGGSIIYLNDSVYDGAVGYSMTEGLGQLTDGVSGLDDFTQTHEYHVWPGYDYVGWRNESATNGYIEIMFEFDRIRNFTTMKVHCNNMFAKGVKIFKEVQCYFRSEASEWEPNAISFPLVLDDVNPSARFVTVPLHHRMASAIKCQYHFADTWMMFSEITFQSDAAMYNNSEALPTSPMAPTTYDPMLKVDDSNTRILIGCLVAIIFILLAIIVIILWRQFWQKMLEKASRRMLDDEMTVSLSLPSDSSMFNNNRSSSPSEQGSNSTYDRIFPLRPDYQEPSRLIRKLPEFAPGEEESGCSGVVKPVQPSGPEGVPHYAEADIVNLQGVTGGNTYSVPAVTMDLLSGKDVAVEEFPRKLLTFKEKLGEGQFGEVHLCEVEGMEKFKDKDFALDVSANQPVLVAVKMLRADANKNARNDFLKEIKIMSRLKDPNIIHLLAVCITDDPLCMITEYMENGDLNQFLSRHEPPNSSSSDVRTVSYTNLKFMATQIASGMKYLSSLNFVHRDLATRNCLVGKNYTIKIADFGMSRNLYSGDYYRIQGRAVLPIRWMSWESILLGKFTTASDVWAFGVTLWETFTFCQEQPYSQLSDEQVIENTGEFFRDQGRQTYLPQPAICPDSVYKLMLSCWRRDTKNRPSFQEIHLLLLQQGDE

[2] = target: High affinity nerve growth factor receptor (Homo sapiens) (UniProt P04629); assay: Inhibition of TRK-A (unknown origin) assessed as remaining activity at 1 uM using fluorescein-poly GAT as substrate in presence of ATP by TR-FRET assay relative to control
Mus musculus [3] = assay: Antifibrotic activity against bleomycin-induced C57BL/6 mouse model of pulmonary fibrosis assessed as increase in animal survival at 30 mg/kg, ip administered once daily for 21 days; type: functional, organism-based; conditions: time 21.0 day
A549 [4] = assay: Antitumor activity against human A549 cells xenografted in SPF BALB/c nude mouse assessed as reduction in Ki-67 expression at 30 mg/kg, ip administered for 14 days by immunohistochemistry analysis; type: functional, organism-based; conditions: time 14.0 day
A549 [5] = assay: Effect on AKT1 level in human A549 cells at 50 to 200 nM by Western blotting analysis; type: functional, cell-based; conditions: dose 50-200 nM
A549 [6] = assay: Inhibition of cell migration in human A549 cells at 50 to 200 nM by transwell assay; type: functional, cell-based; conditions: dose 50-200 nM
A549 [7] = assay: Inhibition of epithelial-to-mesenchymal transition in human A549 cells assessed as downregulation of N-cadherin protein expression at 50 to 200 nM by Western blotting analysis; type: functional, cell-based; conditions: dose 50-200 nM
[8] = target: RAC-alpha serine/threonine-protein kinase (Homo sapiens) (UniProt P31749); assay: Inhibition of Akt1 phosphorylation in human A549 cells at 50 to 200 nM by Western blotting analysis; type: cell-based; conditions: dose 50-200 nM
A549 [9] = assay: Effect on ERK1/2 level in human A549 cells at 50 to 200 nM by Western blotting analysis; type: functional, cell-based; conditions: dose 50-200 nM
[10] = Toxicity in SPF BALB/c nude mouse xenografted with human A549 cells assessed as weight loss at 30 mg/kg, ip administered for 14 days; type: organism-based; conditions: in vivo, 336 h, time 14 day
[11] = target: NT-3 growth factor receptor (Homo sapiens) (UniProt Q16288); assay: Inhibition of TRK-C (unknown origin) assessed as remaining activity at 1 uM using fluorescein-poly GAT as substrate in presence of ATP by TR-FRET assay relative to control
[12] = target: BDNF/NT-3 growth factors receptor (Homo sapiens) (UniProt Q16620); assay: Inhibition of TRK-B (unknown origin) assessed as remaining activity at 1 uM using fluorescein-poly GAT as substrate in presence of ATP by TR-FRET assay relative to control
Mus musculus [13] = assay: Antifibrotic activity against bleomycin-induced C57BL/6 mouse model of pulmonary fibrosis assessed as increase in animal survival at 15 mg/kg, ip administered once daily for 21 days; type: functional, organism-based; conditions: time 21.0 day
A549 [14] = assay: Antiproliferative activity against human A549 cells transfected with DDR1 siRNA incubated for 72 hrs by MTT assay; type: functional, cell-based
Mus musculus [15] = assay: Antifibrotic activity against bleomycin-induced C57BL/6 mouse model of pulmonary fibrosis assessed as reduction in collagen-I level in pulmonary tissue at 30 mg/kg, ip administered once daily for 21 days by immunofluorescence staining based assay; type: functional, organism-based; conditions: time 21.0 day
NCI-H1975 = assay: Antiproliferative activity against human NCI-H1975 cells incubated for 72 hrs by MTT assay; conditions: NCI-H1975, 72 h
A549 [16] = assay: Inhibition of epithelial-to-mesenchymal transition in human A549 cells assessed as upregulation of E-cadherin protein expression at 50 to 200 nM by Western blotting analysis; type: functional, cell-based; conditions: dose 50-200 nM
[17] = Antiproliferative activity against human SPCA1 cells incubated for 72 hrs by MTT assay; conditions: SPCA1, 72 h
A549 [18] = assay: Effect on DDR1 level in human A549 cells at 50 to 200 nM by Western blotting analysis; type: functional, cell-based; conditions: dose 50-200 nM
Mus musculus [19] = assay: Antifibrotic activity against bleomycin-induced C57BL/6 mouse model of pulmonary fibrosis assessed as reduction in inflammatory cytokines levels in BALF at 30 mg/kg, ip administered once daily for 21 days; type: functional, organism-based; conditions: time 21.0 day
Mus musculus [20] = assay: Antifibrotic activity against bleomycin-induced C57BL/6 mouse model of pulmonary fibrosis assessed as reduction in alpha-SMA level in pulmonary tissue at 30 mg/kg, ip administered once daily for 21 days by immunofluorescence staining based assay; type: functional, organism-based; conditions: time 21.0 day
A549 [21] = assay: Antitumor activity against human A549 cells xenografted in SPF BALB/c nude mouse assessed as reduction in cell growth ratio at 30 mg/kg, ip administered for 14 days by TUNEL staining based immunohistochemistry analysis; type: functional, organism-based; conditions: time 14.0 day
NIH3T3 [22] = assay: Inhibition of TGF-beta1 induced mouse NIH3T3 cells activation assessed as reduction in collagen-I accumulation at 3 to 6 uM preincubated with TGF-beta1 followed by compound addition by immunofluorescence staining based assay; type: functional, cell-based; conditions: dose 3-6 µM
NIH3T3 [23] = assay: Inhibition of TGF-beta1 induced mouse NIH3T3 cells activation assessed as reduction in alpha-SMA level at 3 to 6 uM preincubated with TGF-beta1 followed by compound addition by immunofluorescence staining based assay; type: functional, cell-based; conditions: dose 3-6 µM
A549 [24] = assay: Antitumor activity against human A549 cells xenografted in SPF BALB/c nude mouse assessed as tumor growth inhibition at 30 mg/kg, ip administered for 14 days; type: functional, organism-based; conditions: time 14.0 day
A549 [25] = assay: Antiproliferative activity against human A549 cells incubated for 72 hrs by MTT assay; conditions: A549, 72 h
Mus musculus [26] = assay: Antifibrotic activity against bleomycin-induced C57BL/6 mouse model of pulmonary fibrosis assessed as reduction in morphological changes at 30 mg/kg, ip administered once daily for 21 days by H and E staining based assay; type: functional, organism-based; conditions: time 21.0 day
[27] = target: T2, Discoidin domain-containing receptor 2 (Homo sapiens) (UniProt Q16832); assay: Inhibition of DDR2 (unknown origin) assessed as remaining activity at 1 uM using fluorescein-poly GAT as substrate in presence of ATP by TR-FRET assay relative to control
T2 sequence (whole entry): T1 sequence (Q16832 whole entry)

Mus musculus [28] = assay: Antifibrotic activity against bleomycin-induced C57BL/6 mouse model of pulmonary fibrosis assessed as reduction in neutrophil count in BALF at 30 mg/kg, ip administered once daily for 21 days; type: functional, organism-based; conditions: time 21.0 day
Mus musculus [29] = assay: Antifibrotic activity against bleomycin-induced C57BL/6 mouse model of pulmonary fibrosis assessed as reduction in collagen hyperplasia at 30 mg/kg, ip administered once daily for 21 days; type: functional, organism-based; conditions: time 21.0 day
A549 [30] = assay: Inhibition of epithelial-to-mesenchymal transition in human A549 cells assessed as downregulation of N-cadherin protein expression at 200 nM by laser confocal microscopy analysis; type: functional, cell-based
[31] = target: Mitogen-activated protein kinase; ERK1/ERK2 (Homo sapiens) (UniProt P27361+P28482); assay: Inhibition of ERK1/2 phosphorylation in human A549 cells at 50 to 200 nM by Western blotting analysis; type: cell-based; conditions: dose 50-200 nM
A549 [32] = assay: Inhibition of epithelial-to-mesenchymal transition in human A549 cells assessed as upregulation of E-cadherin protein expression at 200 nM by laser confocal microscopy analysis; type: functional, cell-based
Mus musculus [33] = assay: In vivo inhibition of DDR1 phosphorylation in SPF BALB/c nude mouse xenografted with human A549 cells at 30 mg/kg, ip administered for 14 days; type: functional, organism-based; conditions: time 14.0 day
Mus musculus [34] = assay: Antifibrotic activity against bleomycin-induced C57BL/6 mouse model of pulmonary fibrosis assessed as reduction in total cell count in BALF at 30 mg/kg, ip administered once daily for 21 days; type: functional, organism-based; conditions: time 21.0 day
NIH3T3 [35] = assay: Inhibition of TGF-beta1 induced mouse NIH3T3 cells activation assessed as reduction in alpha-SMA level at 5 uM preincubated with TGF-beta1 followed by compound addition by immunofluorescence staining based assay; type: functional, cell-based
NIH3T3 [36] = assay: Inhibition of TGF-beta1 induced mouse NIH3T3 cells activation assessed as reduction in collagen-I accumulation at 5 uM preincubated with TGF-beta1 followed by compound addition by immunofluorescence staining based assay; type: functional, cell-based

Chain of RAC-alpha serine/threonine-protein kinase (Homo sapiens) (P31749 whole entry): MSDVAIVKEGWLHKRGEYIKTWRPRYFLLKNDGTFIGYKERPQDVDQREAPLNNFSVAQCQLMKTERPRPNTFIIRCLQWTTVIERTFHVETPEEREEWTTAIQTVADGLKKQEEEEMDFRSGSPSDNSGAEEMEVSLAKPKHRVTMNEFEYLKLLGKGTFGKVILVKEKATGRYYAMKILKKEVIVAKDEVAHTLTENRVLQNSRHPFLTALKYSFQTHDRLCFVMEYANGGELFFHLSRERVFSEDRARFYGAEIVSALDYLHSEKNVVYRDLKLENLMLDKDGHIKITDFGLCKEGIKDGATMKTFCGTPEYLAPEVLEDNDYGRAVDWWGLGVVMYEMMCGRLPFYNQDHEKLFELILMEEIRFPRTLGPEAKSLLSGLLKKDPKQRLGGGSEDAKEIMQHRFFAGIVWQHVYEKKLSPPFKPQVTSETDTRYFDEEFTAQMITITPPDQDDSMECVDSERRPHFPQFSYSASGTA
Chain of BDNF/NT-3 growth factors receptor (Homo sapiens) (Q16620 32-822 limits assumed): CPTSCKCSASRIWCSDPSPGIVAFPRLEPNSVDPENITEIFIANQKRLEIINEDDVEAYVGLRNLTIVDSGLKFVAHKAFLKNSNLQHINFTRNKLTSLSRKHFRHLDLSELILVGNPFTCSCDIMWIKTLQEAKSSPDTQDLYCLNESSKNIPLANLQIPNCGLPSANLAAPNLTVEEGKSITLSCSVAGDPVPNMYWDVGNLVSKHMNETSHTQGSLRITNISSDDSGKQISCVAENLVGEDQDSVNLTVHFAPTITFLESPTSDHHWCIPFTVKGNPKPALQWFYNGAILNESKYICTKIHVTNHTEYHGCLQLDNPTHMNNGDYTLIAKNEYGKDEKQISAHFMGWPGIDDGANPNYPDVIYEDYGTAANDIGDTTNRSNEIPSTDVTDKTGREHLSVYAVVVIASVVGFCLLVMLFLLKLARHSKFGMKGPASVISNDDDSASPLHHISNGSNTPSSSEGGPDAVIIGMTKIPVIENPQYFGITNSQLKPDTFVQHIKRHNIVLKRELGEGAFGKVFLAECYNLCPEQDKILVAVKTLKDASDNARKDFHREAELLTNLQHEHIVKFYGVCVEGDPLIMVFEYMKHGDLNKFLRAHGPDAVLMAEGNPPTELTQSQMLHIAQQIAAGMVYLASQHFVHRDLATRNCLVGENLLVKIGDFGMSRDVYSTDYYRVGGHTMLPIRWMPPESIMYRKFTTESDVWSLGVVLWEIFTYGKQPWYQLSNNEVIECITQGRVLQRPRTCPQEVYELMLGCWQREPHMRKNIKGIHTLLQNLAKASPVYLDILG
Chain of High affinity nerve growth factor receptor (Homo sapiens) (P04629 33-796 limits assumed): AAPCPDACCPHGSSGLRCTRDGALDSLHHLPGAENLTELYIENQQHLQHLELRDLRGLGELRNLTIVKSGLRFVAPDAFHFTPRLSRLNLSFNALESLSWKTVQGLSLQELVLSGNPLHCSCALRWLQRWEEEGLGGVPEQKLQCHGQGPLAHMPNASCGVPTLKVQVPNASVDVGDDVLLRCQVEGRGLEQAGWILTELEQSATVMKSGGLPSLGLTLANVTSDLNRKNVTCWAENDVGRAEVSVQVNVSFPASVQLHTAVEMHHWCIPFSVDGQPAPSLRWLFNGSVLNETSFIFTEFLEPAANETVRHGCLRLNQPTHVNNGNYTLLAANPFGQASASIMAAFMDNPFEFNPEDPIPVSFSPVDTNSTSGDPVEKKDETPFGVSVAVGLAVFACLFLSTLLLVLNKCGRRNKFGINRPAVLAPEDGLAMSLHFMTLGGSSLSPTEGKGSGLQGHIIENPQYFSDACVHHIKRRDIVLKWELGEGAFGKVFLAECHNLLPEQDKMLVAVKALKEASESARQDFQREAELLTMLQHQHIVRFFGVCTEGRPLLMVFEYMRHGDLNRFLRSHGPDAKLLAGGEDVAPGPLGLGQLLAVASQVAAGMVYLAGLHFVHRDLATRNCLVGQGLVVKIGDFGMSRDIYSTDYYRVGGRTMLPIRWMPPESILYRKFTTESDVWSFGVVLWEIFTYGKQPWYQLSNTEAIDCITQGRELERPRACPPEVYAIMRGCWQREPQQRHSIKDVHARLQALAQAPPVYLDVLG
Chain of NT-3 growth factor receptor (Homo sapiens) (Q16288 32-839 limits assumed): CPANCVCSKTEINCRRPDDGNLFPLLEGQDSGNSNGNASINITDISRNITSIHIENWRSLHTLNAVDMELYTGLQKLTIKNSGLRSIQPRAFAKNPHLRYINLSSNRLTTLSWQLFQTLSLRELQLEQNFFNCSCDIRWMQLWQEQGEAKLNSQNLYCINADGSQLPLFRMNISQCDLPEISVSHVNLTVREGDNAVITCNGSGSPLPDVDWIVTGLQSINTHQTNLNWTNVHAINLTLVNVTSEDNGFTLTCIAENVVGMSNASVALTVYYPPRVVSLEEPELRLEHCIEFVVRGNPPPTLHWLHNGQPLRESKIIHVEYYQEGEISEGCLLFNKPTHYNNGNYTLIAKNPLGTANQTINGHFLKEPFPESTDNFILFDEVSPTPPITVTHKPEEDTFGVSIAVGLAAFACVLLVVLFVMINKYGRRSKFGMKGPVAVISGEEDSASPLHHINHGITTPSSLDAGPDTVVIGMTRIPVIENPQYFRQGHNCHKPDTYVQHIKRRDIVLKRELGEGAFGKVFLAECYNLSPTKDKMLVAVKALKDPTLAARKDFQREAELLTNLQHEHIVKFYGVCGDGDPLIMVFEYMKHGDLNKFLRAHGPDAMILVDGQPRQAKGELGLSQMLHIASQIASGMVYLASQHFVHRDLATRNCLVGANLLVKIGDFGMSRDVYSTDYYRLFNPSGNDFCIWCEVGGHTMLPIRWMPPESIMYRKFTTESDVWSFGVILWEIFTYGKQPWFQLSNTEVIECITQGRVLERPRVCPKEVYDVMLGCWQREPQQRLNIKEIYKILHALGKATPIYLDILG
Chain of Mitogen-activated protein kinase; ERK1/ERK2 (Homo sapiens) (P27361 whole entry, looked up): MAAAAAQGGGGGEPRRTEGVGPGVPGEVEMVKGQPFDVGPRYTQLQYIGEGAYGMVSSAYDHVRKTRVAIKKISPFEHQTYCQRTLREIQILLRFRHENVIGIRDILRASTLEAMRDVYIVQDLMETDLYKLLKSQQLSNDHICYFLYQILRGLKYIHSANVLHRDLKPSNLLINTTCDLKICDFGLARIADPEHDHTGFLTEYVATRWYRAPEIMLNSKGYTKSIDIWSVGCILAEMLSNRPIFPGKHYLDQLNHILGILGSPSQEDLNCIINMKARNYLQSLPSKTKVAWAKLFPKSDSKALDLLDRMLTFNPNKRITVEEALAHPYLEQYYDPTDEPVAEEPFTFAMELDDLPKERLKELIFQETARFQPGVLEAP
Chain of Mitogen-activated protein kinase; ERK1/ERK2 (Homo sapiens) (P28482 whole entry, looked up): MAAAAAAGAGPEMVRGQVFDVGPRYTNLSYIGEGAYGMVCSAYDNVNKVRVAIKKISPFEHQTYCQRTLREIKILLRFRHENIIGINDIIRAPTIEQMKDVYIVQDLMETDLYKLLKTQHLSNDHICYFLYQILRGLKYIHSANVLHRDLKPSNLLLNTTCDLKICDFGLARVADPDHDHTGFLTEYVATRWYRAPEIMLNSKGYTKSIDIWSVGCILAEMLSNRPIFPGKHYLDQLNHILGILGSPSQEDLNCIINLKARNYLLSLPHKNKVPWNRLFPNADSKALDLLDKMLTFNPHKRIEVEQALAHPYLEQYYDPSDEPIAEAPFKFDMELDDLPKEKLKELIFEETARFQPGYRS

pIC50 [1]: 6.90 | Activity [2]: 84.9% | inhibition [8]: Active | Activity [11]: 78.6% | Activity [12]: 106% | pIC50 (NCI-H1975): 5.73 | pIC50 (A549 [25]): 5.74 | Activity [27]: 13.7% | inhibition [31]: Active
SMILES: CN1CCN(C(=O)Cn2cc(CNC(=O)Nc3ccc(F)cc3F)c3cc(F)ccc32)CC1
Activity (Mus musculus [3]): Active | Activity (A549 [4]): Active | Activity (A549 [5]): inactive | inhibition (A549 [6]): Active | inhibition (A549 [7]): Active | Activity (A549 [9]): inactive | Activity [10]: Non-Toxic | Activity (Mus musculus [13]): Active | Activity (A549 [14]): inactive | Activity (Mus musculus [15]): Active | inhibition (A549 [16]): Active | pIC50 [17]: 5.45 | Activity (A549 [18]): inactive | Activity (Mus musculus [19]): Active | Activity (Mus musculus [20]): Active | Activity (A549 [21]): Active | inhibition (NIH3T3 [22]): Active | inhibition (NIH3T3 [23]): Active | Activity (A549 [24]): Active | Activity (Mus musculus [26]): Active | Activity (Mus musculus [28]): Active | Activity (Mus musculus [29]): Active | inhibition (A549 [30]): Active | inhibition (A549 [32]): Active | inhibition (Mus musculus [33]): Active | Activity (Mus musculus [34]): Active

pIC50 (NCI-H1975): 5.90 | pIC50 (A549 [25]): 5.59
SMILES: Cc1nc(Nc2ncc(C(=O)Nc3c(C)cccc3Cl)s2)cc(N2CCN(CCO)CC2)n1 [DASATINIB ANHYDROUS]
inhibition (NIH3T3 [35]): Active | Activity (Mus musculus [3]): Active | Activity (A549 [5]): inactive | inhibition (A549 [7]): Active | Activity (A549 [9]): inactive | inhibition (A549 [16]): Active | pIC50 [17]: 5.61 | Activity (A549 [18]): inactive | Activity (A549 [24]): Active | inhibition (NIH3T3 [36]): Active
